According to PubChem BioAssay (NCI):
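Abbreviation: GI50, concentration required for 50% inhibition of growth. At the TGI there is no net growth.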

Tests used:
Assay in all cases: inhibition of tumour cell growth, NCI panel, 384-well format
[1] = system: SK-OV-3 ovarian
[2] = system: K-562 leukemia
[3] = system: NCI-H322M lung
[4] = system: T-47D breast
[5] = system: UACC-257 melanoma
[6] = system: PC-3 prostate
[7] = system: HL-60(TB) leukemia
[8] = system: U251 glioblastoma
[9] = system: EKVX NSCLC
[10] = system: SF-295 CNS
[11] = system: BT-549 breast
[12] = system: HT29 colon
[13] = system: MDA-MB-468 breast
[14] = system: SNB-75 CNS
[15] = system: SR leukemia
[16] = system: COLO 205 colon
[17] = system: HCC-2998 colon
[18] = system: KM12 colon
[19] = system: OVCAR-4 ovarian
[20] = system: MOLT-4 leukemia
[21] = system: RXF 393 renal
[22] = system: TK-10 renal
[23] = system: NCI-H23 lung
[24] = system: DU-145 prostate
[25] = system: A498 renal
[26] = system: NCI-H460 NSCLC
[27] = system: MDA-MB-435 melanoma
[28] = system: SK-MEL-28 melanoma
[29] = system: SW-620 colon
[30] = system: SN12C renal
[31] = system: NCI/ADR-RES ovarian
[32] = system: CCRF-CEM leukemia
[33] = system: HOP-92 NSCLC
[34] = system: UACC-62 melanoma
[35] = system: MCF7 breast
[36] = system: M14 melanoma
[37] = system: NCI-H226 lung
[38] = system: SK-MEL-5 melanoma
[39] = system: 786-0 renal
[40] = system: RPMI-8226 leukemia
[41] = system: CAKI-1 renal
[42] = system: SF-539 CNS
[43] = system: ACHN renal
[44] = system: OVCAR-3 ovarian
[45] = system: SF-268 CNS
[46] = system: HOP-62 NSCLC
[47] = system: A549 NSCLC
[48] = system: MALME-3M melanoma
[49] = system: HS 578T breast
[50] = system: HCT-116 colon
[51] = system: HCT-15 colon
[52] = system: IGROV1 ovarian
[53] = system: SNB-19 CNS
[54] = system: NCI-H522 lung
[55] = system: UO-31 renal
[56] = system: MDA-MB-231 breast
[57] = system: LOX IMVI melanoma
[58] = system: OVCAR-8 ovarian
[59] = system: OVCAR-5 ovarian

Cc1sc2c(c1C)C(c1ccc(Cl)cc1)=N[C@@H](CC(=O)Nc1ccc(O)cc1)c1nnc(C)n1-2
GI50 [1]: 173 nM
TGI [1]: 5.48 µM
GI50 [2]: 0.133 µM
TGI [2]: 13.4 µM
GI50 [3]: 0.219 µM
TGI [3]: 14.3 µM
GI50 [4]: 0.252 µM
TGI [4]: 15.3 µM
GI50 [5]: 174 nM
TGI [5]: 16.4 µM
GI50 [6]: 228 nM
TGI [6]: 14.6 µM
GI50 [7]: 0.0114 µM
TGI [7]: 44.6 nM
GI50 [8]: 0.644 µM
TGI [8]: 14.6 µM
GI50 [9]: 3.09 µM
TGI [9]: 20.1 µM
GI50 [10]: 0.803 µM
TGI [10]: 13.1 µM
GI50 [11]: 41.7 nM
TGI [11]: 1780 nM
GI50 [12]: 0.104 µM
TGI [12]: 2080 nM
GI50 [13]: 0.175 µM
TGI [13]: 1940 nM
GI50 [14]: 0.367 µM
TGI [14]: 13.7 µM
GI50 [15]: 11.7 nM
TGI [15]: 0.0588 µM
GI50 [16]: 164 nM
TGI [16]: 2090 nM
GI50 [17]: 0.107 µM
TGI [17]: 1050 nM
GI50 [18]: 0.471 µM
TGI [18]: 16.4 µM
GI50 [19]: 128 nM
TGI [19]: 798 nM
GI50 [20]: 61 nM
TGI [20]: 1280 nM
GI50 [21]: 0.74 µM
TGI [21]: 4.39 µM
GI50 [22]: 0.154 µM
TGI [22]: 3.7 µM
GI50 [23]: 0.213 µM
TGI [23]: 2860 nM
GI50 [24]: 1.17 µM
TGI [24]: 28 µM
GI50 [25]: 0.38 µM
TGI [25]: 10.4 µM
GI50 [26]: 337 nM
TGI [26]: 14.9 µM
GI50 [27]: 1.03 µM
TGI [27]: 12.6 µM
GI50 [28]: 0.581 µM
TGI [28]: 15.7 µM
GI50 [29]: 1.18 µM
TGI [29]: 18.5 µM
GI50 [30]: 0.42 µM
TGI [30]: 13.1 µM
GI50 [31]: 1890 nM
TGI [31]: 8.45 µM
GI50 [32]: 106 nM
TGI [32]: 8 µM
GI50 [33]: 156 nM
TGI [33]: 11.5 µM
GI50 [34]: 0.0422 µM
TGI [34]: 2960 nM
GI50 [35]: 54.3 nM
TGI [35]: 12.4 µM
GI50 [36]: 0.262 µM
TGI [36]: 12.1 µM
GI50 [37]: 98.3 nM
TGI [37]: 8.21 µM
GI50 [38]: 0.304 µM
TGI [38]: 10.7 µM
GI50 [39]: 0.114 µM
TGI [39]: 12.6 µM
GI50 [40]: 23.1 nM
TGI [40]: 153 nM
GI50 [41]: 0.0449 µM
TGI [41]: 7.15 µM
GI50 [42]: 292 nM
TGI [42]: 12.5 µM
GI50 [43]: 0.877 µM
TGI [43]: 15.6 µM
GI50 [44]: 0.0666 µM
TGI [44]: 1910 nM
GI50 [45]: 0.627 µM
TGI [45]: 12.8 µM
GI50 [46]: 0.158 µM
TGI [46]: 3.9 µM
GI50 [47]: 596 nM
TGI [47]: 14.7 µM
GI50 [48]: 0.194 µM
TGI [48]: 3.6 µM
GI50 [49]: 0.0372 µM
TGI [49]: 355 nM
GI50 [50]: 235 nM
TGI [50]: 12.5 µM
GI50 [51]: 247 nM
TGI [51]: 7.33 µM
GI50 [52]: 158 nM
TGI [52]: 4.13 µM
GI50 [53]: 0.355 µM
TGI [53]: 16.7 µM
GI50 [54]: 0.0624 µM
TGI [54]: 730 nM
GI50 [55]: 0.632 µM
TGI [55]: 14.4 µM
GI50 [56]: 81.6 nM
TGI [56]: 14.3 µM
GI50 [57]: 0.108 µM
TGI [57]: 266 nM
GI50 [58]: 0.118 µM
TGI [58]: 1570 nM

O=c1[nH]cc(F)c(=O)[nH]1
GI50 [1]: > 69900 nM
GI50 [2]: 18.7 µM
GI50 [3]: 32.7 µM
GI50 [4]: 78.3 µM
GI50 [6]: > 80500 nM
GI50 [7]: 11 µM
GI50 [8]: 22 µM
GI50 [59]: 13.1 µM
GI50 [10]: 22 µM
GI50 [11]: 3960 nM
GI50 [12]: 7.03 µM
GI50 [13]: 41.8 µM
TGI [13]: > 86200 nM
GI50 [14]: 7.12 µM
TGI [14]: > 29.7 µM
GI50 [15]: 2000 nM
TGI [15]: 6.89 µM
GI50 [16]: 1450 nM
GI50 [17]: 13.6 µM
GI50 [18]: 6.5 µM
GI50 [20]: 1640 nM
TGI [20]: 3260 nM
GI50 [21]: 27.7 µM
GI50 [22]: 35.1 µM
GI50 [23]: 29.6 µM
GI50 [24]: 5.49 µM
GI50 [25]: 5.89 µM
GI50 [26]: 3230 nM
TGI [26]: 38.8 µM
GI50 [27]: 16.8 µM
GI50 [28]: 19.3 µM
GI50 [29]: 25 µM
GI50 [30]: 14.5 µM
GI50 [32]: > 27900 nM
GI50 [34]: 8.73 µM
GI50 [35]: 2580 nM
GI50 [36]: 65.7 µM
GI50 [38]: 5.77 µM
GI50 [39]: 9.77 µM
GI50 [40]: 162 nM
TGI [40]: 476 nM
GI50 [41]: 9.98 µM
GI50 [42]: 4200 nM
GI50 [43]: 11.6 µM
GI50 [44]: 6.27 µM
TGI [44]: > 86500 nM
GI50 [45]: 45.2 µM
GI50 [46]: 13.6 µM
GI50 [47]: 2210 nM
GI50 [48]: 85.5 µM
GI50 [49]: 12.1 µM
GI50 [50]: 3940 nM
GI50 [51]: 5280 nM
GI50 [52]: > 30600 nM
GI50 [53]: 51.7 µM
GI50 [54]: 55.6 µM
GI50 [55]: 8.23 µM
GI50 [56]: > 89700 nM
GI50 [57]: 17.1 µM
GI50 [58]: 37.2 µM
